Reference: patent publication US7420056B2, “Substituted bicyclic imidazo-3-ylamine compounds” (Gruenenthal GmbH, priority 2004, dated 2008)
Counter-ions that a name gives are not always drawn. Like-named read-outs stand apart in the source and are kept apart here.

Key:
mGluR5 receptor = mGluR5 receptor (Sus scrofa, UniProt I3LUI7); assay: Affinity for the mGluR5 receptor: inhibition of 3[H]-MPEP binding in pig brain homogenate; details: for IC50: 3[H]-MPEP binding
Summary of the method: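 Test compounds were screened at 10 μM for displacement of 5 nM [3H]-MPEP from pig brain homogenate (450 μg protein, pH 8.0 Hepes buffer) over 60 min at room temperature. After filtration, scintillation counting gave the read-out. 10 μM unlabelled MPEP set nonspecific binding.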

Rat = assay: Formaldehyde test (rat), phase 2; type: in vivo
Mouse = assay: Formaldehyde test in mice; type: in vivo
[1] = tested on: neuropathic pain in rats (cold allodynia); assay: Neuropathic pain in rats, Bennett model (chronic constriction injury), cold allodynia; type: in vivo; details: rat, p.o., in words
Description: 2. Neuropathic Pain in Rats Efficacy against neuropathic pain was investigated in the Bennett model (chronic constriction injury; Bennett and Xie, 1988, Pain 33: 87-107). The corresponding parts of the literature are hereby deemed to be part of the present disclosure. Sprague-Dawley rats weighing 140-160 g are provided under Nembutal anaesthesia with four loose ligatures of the right ischial nerve. On the paw innervated by the damaged nerve, the animals develop hypersensitivity which, after one week's convalescence, is quantified over a period of approx. four weeks by means of a cold metal plate at 4° C. (cold allodynia). The animals are observed on this plate for a period of 2 min. and the number of withdrawal responses by the damaged paw is measured. […] The significance of an antiallodynic action is determined with reference to the AUC values by means of a paired T-test (*0.05≧p>0.01; **0.01≧p>0.001; ***p≦0.001; Armitage and Berry, 1987, Stat. Methods in Medical Research, London: Blackwell Scientific Publications).

male Sprague-Dawley rats = assay: Elevated plus maze (EPM) model, anxiolytic effect; type: in vivo; details: rat, 60 min after p.o. administration, in words
Procedure: 3. “Elevated Plus Maze” Model
Compounds are tested for a possible anxiolytic effect in the “elevated plus maze” (EPM) model. The tests are carried out on male Sprague-Dawley rats (200-250 g) using 2 “elevated plus mazes” (Med Associates) with electronically controlled infrared photobeams for determining the location of the animals in the maze. Each maze has 2 open and 2 closed arms and a central platform. The edges of the open arms are delimited by narrow strips. The entire maze is mounted on a metal stand.
At the beginning of a 5 minute test, each animal is individually placed on the central platform with its head in the direction of a closed arm.
The following parameters are determined or calculated and evaluated:
the number and percentage of entries into the open and closed arms,
and the percentage of time spent in the open and closed arms and on the central platform.
The data are analysed by means of single factor ANOVA (comparison of treatment groups vs. vehicle group). The significance level is set at p<0.05. All groups have a size of N=10.
The test is also described in Hogg, S. (1996) A review of the validity and variability of the elevated plus-maze as an animal model of anxiety. Pharmacol. Biochem. Behav. 54, 21-30 and Rodgers, R. J., Cole, J. C. (1994) The elevated plus-maze: pharmacology, methodology and ethology, in: Cooper, S. J., Hendrie, C. […]

[2] = ip, read-out: ED50 value, Rat i.p.
[3] = po, read-out: ED50 value, Rat p.o.
[4] = ip, read-out: ED50 value, Mouse i.p.

mGluR5 receptor, sequence (I3LUI7 19-1212): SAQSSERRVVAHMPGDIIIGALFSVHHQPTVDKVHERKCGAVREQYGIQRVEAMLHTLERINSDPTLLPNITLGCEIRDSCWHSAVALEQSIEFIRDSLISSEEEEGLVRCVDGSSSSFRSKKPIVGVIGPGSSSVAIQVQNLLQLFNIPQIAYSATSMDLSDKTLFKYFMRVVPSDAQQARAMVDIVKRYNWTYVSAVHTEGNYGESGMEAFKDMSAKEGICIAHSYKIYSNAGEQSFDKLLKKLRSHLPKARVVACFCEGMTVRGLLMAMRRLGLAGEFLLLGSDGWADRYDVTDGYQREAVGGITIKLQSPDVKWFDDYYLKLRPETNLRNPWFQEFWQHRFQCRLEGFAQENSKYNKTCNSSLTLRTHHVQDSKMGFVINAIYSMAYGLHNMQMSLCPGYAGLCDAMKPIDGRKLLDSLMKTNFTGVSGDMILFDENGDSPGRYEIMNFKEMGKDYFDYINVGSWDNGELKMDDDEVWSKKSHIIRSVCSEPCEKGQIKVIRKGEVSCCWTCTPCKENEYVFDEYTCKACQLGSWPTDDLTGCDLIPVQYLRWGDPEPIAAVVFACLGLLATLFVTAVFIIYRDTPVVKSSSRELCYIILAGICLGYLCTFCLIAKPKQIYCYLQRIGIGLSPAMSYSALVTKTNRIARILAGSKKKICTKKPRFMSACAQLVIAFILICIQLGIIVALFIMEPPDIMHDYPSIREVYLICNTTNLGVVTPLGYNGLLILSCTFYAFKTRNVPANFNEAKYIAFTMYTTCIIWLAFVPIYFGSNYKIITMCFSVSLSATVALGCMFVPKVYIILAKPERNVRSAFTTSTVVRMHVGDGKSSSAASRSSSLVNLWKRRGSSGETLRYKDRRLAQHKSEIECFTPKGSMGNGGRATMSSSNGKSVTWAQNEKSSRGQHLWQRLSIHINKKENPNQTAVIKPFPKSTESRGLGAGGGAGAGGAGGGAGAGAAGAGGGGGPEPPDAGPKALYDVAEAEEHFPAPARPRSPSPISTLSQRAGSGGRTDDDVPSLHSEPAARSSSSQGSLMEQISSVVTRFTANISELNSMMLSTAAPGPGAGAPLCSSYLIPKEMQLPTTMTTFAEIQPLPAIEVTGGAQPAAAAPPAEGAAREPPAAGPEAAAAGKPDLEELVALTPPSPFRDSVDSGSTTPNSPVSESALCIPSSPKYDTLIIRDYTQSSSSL

| Compound | IC50 (mGluR5 receptor) [µM] | ED50 (Mouse; [4]) [mg/kg] | other results |
| --- | --- | --- | --- |
| CC(C)(C)Nc1c(-c2ccc(C#Cc3ccccn3)s2)nc2cnccn12.Cl [Example 91, N-tert-butyl-2-(5-(pyridin-2-ylethynyl)thiophen-2-yl)imidazo[1,2-a]pyrazin-3-amine hydrochloride] | 0.0054 | 1.2 | ED50 (Rat; [2]): 4.7 mg/kg; ED50 (Rat; [3]): 7.3 mg/kg; ED50 (Mouse; po, read-out: ED50 value, Mouse p.o.): 2.3 mg/kg |
| CC(C)(C)Nc1c(-c2ccc(C#Cc3ccccn3)s2)nc2ccccn12.Cl [Example 192, N-tert-butyl-2-(5-(pyridin-2-ylethynyl)thiophen-2-yl)imidazo[1,2-a]pyridin-3-amine hydrochloride] | – | – | antiallodynic action [1]: pronounced, long-lasting antiallodynic action; anxiolytic effect (male Sprague-Dawley rats): dose-dependent anxiolytic effect |
| CC(C)(C)Nc1c(-c2ccc(C#Cc3ccncc3)s2)nc2cnccn12.Cl [Example 127, N-tert-butyl-2-(5-(pyridin-4-ylethynyl)thiophen-2-yl)imidazo[1,2-a]pyrazin-3-amine hydrochloride] | 0.0084 | 7.7 | ED50 (Rat; [2]): 2.2 mg/kg; ED50 (Rat; [3]): 5.9 mg/kg |
| CC(C)(C)Nc1c(-c2ccc(C#Cc3cccs3)s2)nc2cnccn12.Cl [Example 110, N-tert-butyl-2-(5-(thiophen-2-ylethynyl)thiophen-2-yl)imidazo[1,2-a]pyrazin-3-amine hydrochloride] | 0.049 | – | % inhibition, Rat p.o. (Rat; p.o., at 21.5 mg/kg): 61% at 21.5 |
| COc1cccc(CCNc2c(-c3ccc(C#Cc4ccccc4)s3)nc3nc(C)cc(C)n23)c1 [Example 195, N-(3-methoxyphenethyl)-5,7-dimethyl-2-(5-(phenylethynyl)thiophen-2-yl)imidazo[1,2-a]pyrimidin-3-amine] | – | – | inhibition at 10 µM (mGluR5 receptor; 10 μM compound, 5 nM 3[H]-MPEP, read-out: mGluR5 receptor inhibition of ^3[H]-MPEP binding [10 μM] in % at a concentration of the example compounds of 10 μM): 53% |
| CC(C)(C)Nc1c(-c2ccc(C#Cc3ccccn3)cc2)nc2cnccn12 [Example 116, N-tert-butyl-2-(4-(pyridin-2-ylethynyl)phenyl)imidazo[1,2-a]pyrazin-3-amine] | 0.076 | 15.2 | – |
| Cc1ccsc1C#Cc1ccc(-c2nc3cnccn3c2NC(C)(C)C)s1 [Example 137, N-tert-butyl-2-(5-((3-methylthiophen-2-yl)ethynyl)thiophen-2-yl)imidazo[1,2-a]pyrazin-3-amine] | 0.86 | – | – |
| CC(=O)c1cccc(C#Cc2ccc(-c3nc4ccccn4c3NC(C)(C)C)s2)c1 [Example 340, 1-{3-[5-(3-tert-butylamino-imidazo[1,2-a]pyridin-2-yl)-thiophen-2-ylethynyl]-phenyl}-ethanone hydrochloride] | 0.62 | – | – |
| CC(C)(C)Nc1c(-c2ccc(C#Cc3cc(C#N)ccc3F)s2)nc2cnccn12 [Example 179, 3-((5-(3-(tert-butylamino)imidazo[1,2-a]pyrazin-2-yl)thiophen-2-yl)ethynyl)-4-fluorobenzonitrile] | 0.026 | – | – |
| CC(C)(C)Nc1c(-c2ccc(C#Cc3cccc(F)n3)s2)nc2cnccn12 [Example 165, N-tert-butyl-2-(5-((6-fluoropyridin-2-yl)ethynyl)thiophen-2-yl)imidazo[1,2-a]pyrazin-3-amine] | 0.018 | – | – |
